Biological target: Cytochrome P450 3A4 (Homo sapiens, UniProt P08684)
Experiment: Inhibition of human CYP3A4 assessed as biotransformation of 7-benzyloxyquinoline; call rule not given here
Type: ADME

Chain of Cytochrome P450 3A4 (P08684 whole entry): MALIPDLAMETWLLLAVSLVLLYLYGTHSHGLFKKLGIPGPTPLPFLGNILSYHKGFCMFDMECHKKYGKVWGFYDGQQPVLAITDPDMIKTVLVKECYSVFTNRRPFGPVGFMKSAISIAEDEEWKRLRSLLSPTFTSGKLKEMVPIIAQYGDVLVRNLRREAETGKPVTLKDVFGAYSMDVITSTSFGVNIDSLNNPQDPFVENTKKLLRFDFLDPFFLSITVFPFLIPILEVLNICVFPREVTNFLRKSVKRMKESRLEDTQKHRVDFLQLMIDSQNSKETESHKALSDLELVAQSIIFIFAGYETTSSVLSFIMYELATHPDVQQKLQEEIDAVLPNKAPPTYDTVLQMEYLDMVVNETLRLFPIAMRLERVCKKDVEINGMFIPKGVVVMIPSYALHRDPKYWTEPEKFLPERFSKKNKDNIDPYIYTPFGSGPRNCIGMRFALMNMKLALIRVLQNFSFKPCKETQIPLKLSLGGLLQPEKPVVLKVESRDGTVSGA

Row | Ki (read-out: Ki) | Ki (read-out: pKi (converted)) | SMILES | Ki
1 | 7600 nM | – | CC(=O)O[C@H]1[C@H]2c3cc4c(cc3CN3CCC(=C[C@@H]1O)[C@H]23)OCO4 | –
2 | 11000 nM | – | CC(=O)O[C@H]1[C@H]2c3cc4c(cc3CN3CCC(=C[C@@H]1OC(C)=O)[C@H]23)OCO4 | –
3 | 210 nM | 158 nM | CC(=O)O[C@H]1[C@H]2c3cc4c(cc3CN3CCC(=C[C@@H]1O[Si](C)(C)C(C)(C)C)[C@H]23)OCO4 | –
4 | – | – | O[C@H]1[C@H]2c3cc4c(cc3CN3CCC(=C[C@@H]1O)[C@H]23)OCO4 [LYCORINE] | Not Active
5 | – | – | O=C1N[C@H]2[C@H](O)[C@H](O)[C@@H](O)[C@H](O)[C@@H]2c2cc3c(c(O)c21)OCO3 [PANCRATISTATIN] | Not Active

Row | SMILES | Ki (read-out: Ki) | Ki (read-out: pKi (converted)) | Ki
6 | CC(C)(C)[Si](C)(C)O[C@H]1C=C2CCN3Cc4cc5c(cc4[C@H]([C@@H]1O)[C@@H]23)OCO5 | 260 nM | – | –
7 | O=C1N[C@@H]2C(=C[C@H](O)[C@@H](O)[C@H]2O)c2cc3c(c(O)c21)OCO3 [NARCICLASINE] | 630 nM | – | –
